Like-named read-outs stand apart in the source and are kept apart here. Each block holds one molecule with its values, some of them ahead of it.
Experiments:
Porcn [1] = molecular target: T1, Porcn (Mus musculus, UniProt Q9JJJ7); assay: Suppression of Wnt signaling in L-Wnt-STF cells; type: cell-based
T1 sequence (Q9JJJ7 1-461): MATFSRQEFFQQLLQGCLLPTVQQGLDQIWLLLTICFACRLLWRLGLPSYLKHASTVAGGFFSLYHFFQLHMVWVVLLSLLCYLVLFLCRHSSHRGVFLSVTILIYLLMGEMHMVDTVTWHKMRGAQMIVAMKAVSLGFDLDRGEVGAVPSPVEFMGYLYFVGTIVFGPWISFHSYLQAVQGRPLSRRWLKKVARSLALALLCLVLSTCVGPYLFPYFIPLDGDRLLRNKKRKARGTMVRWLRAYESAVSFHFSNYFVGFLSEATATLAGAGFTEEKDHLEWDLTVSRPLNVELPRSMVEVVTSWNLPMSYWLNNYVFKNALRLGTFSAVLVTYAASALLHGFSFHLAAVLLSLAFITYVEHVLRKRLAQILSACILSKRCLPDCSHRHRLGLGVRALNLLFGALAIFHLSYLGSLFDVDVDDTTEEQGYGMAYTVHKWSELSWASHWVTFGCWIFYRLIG

[2] = Metabolic stability in murine liver S9 fractions; type: in vitro ADME; conditions: for stability (in words): compared with 6
[3] = Stability in murine plasma; type: in vitro ADME; conditions: compared with 6
[4] = murine plasma; cited from earlier work
Porcn [5] = molecular target: T1, Porcn; conditions: L-Wnt-STF cells; cited from earlier work
[6] = murine liver S9 fractions; cited from earlier work
[7] = human plasma; cited from earlier work
[8] = test system: LRP6 phosphorylation in HeLa cells; assay: Western blot of LRP6 phosphorylation in HeLa cells; type: cell-based; conditions: 24 h incubation
[9] = test system: Dvl2/3 phosphorylation in HeLa cells; assay: Western blot of Dvl2/3 phosphorylation in HeLa cells; type: cell-based; conditions: 24 h incubation

fold decrease of potency relative to 17 (Porcn [1]; L-Wnt-STF cells): 5 fold
Structure (SMILES): Cc1ccc2nc(NC(=O)CSc3nc4c(c(=O)n3-c3ccccc3)SCC4)sc2c1 [IWP-2, reference compound]

activity against Wnt signaling (Porcn [1]; at low micromolar concentrations): inactive
Structure (SMILES): O=C(CSc1nnc(-c2ccncc2)o1)Nc1ccc(-c2cccnc2)cc1 [IWP-L1]

EC50 (Porcn [1]): 0.3 nM
stability (in words) [2]: low stability
stability (in words) [3]: low stability
Structure (SMILES): O=C(CSc1nnc(-c2ccncc2)n1-c1ccccc1)Nc1ccc(-c2cccnc2)cc1 [IWP-L2]

Structure (SMILES): O=C(CSc1nc2c(c(=O)n1-c1ccccc1)SCC2)Nc1ccc(-c2ccccc2)cn1 [IWP-L6]
Half-life [4]: <5 min
fold more potent than 1 (IWP-2) (Porcn [5]): 60 fold
Half-life [6]: 26 min
stability (in words) [7]: good stability

stability (in words) [2]: much more stable
stability (in words) [3]: much more stable
Structure (SMILES): O=C(Cn1cc(-c2ccncc2)nn1)Nc1ccc(-c2ccccc2)cn1 [IWP-N3]

times more potent than LGK974 (Porcn [1]; L-Wnt-STF cells): 2.5 times
degradation after incubation ([2]; 4 h): did not observe any degradation
stability (in words) [2]: much more stable
stability (in words) [3]: much more stable
Structure (SMILES): O=C(Cn1nnc(-c2ccncc2)c1-c1ccccc1)Nc1ccc(-c2ccccc2)cn1 [IWP-O1]
phosphorylation of LRP6 [8]: suppressed
phosphorylation of Dvl2/3 [9]: effectively suppressed

EC50 (Porcn [1]): 0.2 nM
Structure (SMILES): Cc1cc(-c2ncc(CC(=O)Nc3ccc(-c4cnccn4)cn3)cc2C)ccn1 [LGK974, reference compound]

Reference: PMC5142825 (Bioorganic & medicinal chemistry letters, 2016)
